Holding throughout (assay type): biochemical
The target of assay [1] is CDK2/CCNE1 (Homo sapiens, UniProt P24941). Put plainly: CDK2 homogeneous time-resolved fluorescence (HTRF) kinase assay. The following applies: CDK2/CCNE. In short, it runs like this:
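An HTRF format measures CDK2/CCNE1 (3 nM) phosphorylating a 4E-BP1 Thr37/46 peptide at high (1 mM) ATP. Reactions run one hour at 23 °C, then EDTA-quenched and probed with Eu-labelled phospho-specific antibody.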
Background: TR-FRET usually uses a lanthanide donor and a delayed reading to cut background.

The target of assay [2] is CDK1/CCNB1 (Homo sapiens, UniProt P06493). The assay can be described thus: CDK1 homogeneous time-resolved fluorescence (HTRF) kinase assay. The note with it: CDK1/CCNB; x = IC50 >250 nM; read-out: CDK1/CCNB IC50 (>250 nM column). Put shortly:
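Read-out: TR-FRET (Eu anti-phospho-4E-BP1 Thr37/46 antibody, 2 nM; 665 nm or 665/615 ratio) after 60 min phosphorylation of 50 nM ULight-peptide by 0.5 nM CDK1/CCNB1 at 1 mM ATP, 23 °C. Compound preincubated 20 min with enzyme; 1% DMSO.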

The target of assay [3] is CDK4/CCND3 (Homo sapiens, UniProt P11802). Put plainly: CDK4 homogeneous time-resolved fluorescence (HTRF) kinase assay. The following applies: CDK4/CCND; x = IC50 >250 nM; read-out: CDK4/CCND IC50 (>250 nM column). Put shortly:
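TR-FRET read (665 nm, or 665/615 ratio) of 4E-BP1 Thr37/46 phosphorylation by 1.5 nM CDK4/CCND3 at 1 mM ATP, 50 nM ULight peptide, 1% DMSO. Reaction ran 60 min at 23 °C after 20 min compound–enzyme preincubation. IC50 from 11-point half-log dilutions, top 10 μM.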

Assay [4] concerns the target CDK6/CCND1 (Homo sapiens, UniProt Q00534). The assay can be described thus: CDK6 homogeneous time-resolved fluorescence (HTRF) kinase assay. The note with it: CDK6/CCND; x = IC50 >250 nM; read-out: CDK6/CCND IC50 (>250 nM column). Put shortly:
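Assay conditions: HEPES buffer containing 10 mM MgCl2, 1 mM EGTA, 2 mM DTT, 0.01% Tween 20; 1 nM CDK6/CCND1, 50 nM peptide substrate, 1 mM ATP. Detection after 60 min reaction used 2 nM europium antibody with 340 nm excitation. Potency fitted from half-log series, 11 points.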

The mark [5] stands for this setting: x = IC50 >250 nM, read-out: CDK2/CCNE IC50 (>250 nM column).
[6] abbreviates: x = IC50 25-250 nM, read-out: CDK2/CCNE IC50 (25-250 nM).

The structures appear in SMILES notation. Where two headings read alike, the source gives them in different places.

Chain of CDK6/CCND1 (Q00534 whole entry): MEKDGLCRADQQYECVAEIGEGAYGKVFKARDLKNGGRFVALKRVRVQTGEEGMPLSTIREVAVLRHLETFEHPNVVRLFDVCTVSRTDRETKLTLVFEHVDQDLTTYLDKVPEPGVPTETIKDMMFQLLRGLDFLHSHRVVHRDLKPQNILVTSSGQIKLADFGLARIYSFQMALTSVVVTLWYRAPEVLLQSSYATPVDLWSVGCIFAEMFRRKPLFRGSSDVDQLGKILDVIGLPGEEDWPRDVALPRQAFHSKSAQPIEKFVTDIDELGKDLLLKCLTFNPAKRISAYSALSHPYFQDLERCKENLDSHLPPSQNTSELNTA
Chain of CDK6/CCND1 (P24385 whole entry partner): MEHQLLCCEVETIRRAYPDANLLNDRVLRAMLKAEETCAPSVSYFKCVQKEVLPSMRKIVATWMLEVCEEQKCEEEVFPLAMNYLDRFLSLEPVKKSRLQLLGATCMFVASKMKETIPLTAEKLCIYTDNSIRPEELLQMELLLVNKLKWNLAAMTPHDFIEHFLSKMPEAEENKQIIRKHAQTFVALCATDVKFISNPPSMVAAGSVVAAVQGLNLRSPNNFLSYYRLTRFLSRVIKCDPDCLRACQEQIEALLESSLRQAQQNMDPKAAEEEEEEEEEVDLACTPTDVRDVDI
Chain of CDK4/CCND3 (P11802 whole entry): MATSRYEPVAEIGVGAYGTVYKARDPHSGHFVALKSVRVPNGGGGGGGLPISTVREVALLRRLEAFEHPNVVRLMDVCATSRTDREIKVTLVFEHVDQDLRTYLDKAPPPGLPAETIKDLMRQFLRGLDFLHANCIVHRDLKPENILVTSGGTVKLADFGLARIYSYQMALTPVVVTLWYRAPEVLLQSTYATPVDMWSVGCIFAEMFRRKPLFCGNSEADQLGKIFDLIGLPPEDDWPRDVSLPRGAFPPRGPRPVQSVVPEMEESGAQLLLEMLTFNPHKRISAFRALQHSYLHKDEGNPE
Chain of CDK4/CCND3 (P30281 whole entry partner): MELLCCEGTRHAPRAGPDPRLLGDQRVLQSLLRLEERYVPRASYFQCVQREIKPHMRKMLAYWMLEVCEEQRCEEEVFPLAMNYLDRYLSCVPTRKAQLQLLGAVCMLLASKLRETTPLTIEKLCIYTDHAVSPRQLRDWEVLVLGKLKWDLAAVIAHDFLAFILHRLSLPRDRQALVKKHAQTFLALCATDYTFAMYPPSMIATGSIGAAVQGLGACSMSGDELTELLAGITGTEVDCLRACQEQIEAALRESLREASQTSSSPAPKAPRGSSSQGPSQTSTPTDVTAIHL
Chain of CDK1/CCNB1 (P06493 whole entry): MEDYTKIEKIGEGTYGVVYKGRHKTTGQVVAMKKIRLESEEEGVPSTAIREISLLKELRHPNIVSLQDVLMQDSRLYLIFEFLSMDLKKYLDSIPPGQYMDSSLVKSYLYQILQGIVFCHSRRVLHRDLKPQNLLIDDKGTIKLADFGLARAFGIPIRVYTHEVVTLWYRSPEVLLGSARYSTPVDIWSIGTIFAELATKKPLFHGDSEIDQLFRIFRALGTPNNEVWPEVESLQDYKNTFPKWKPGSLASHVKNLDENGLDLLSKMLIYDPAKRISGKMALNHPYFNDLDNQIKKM
Chain of CDK1/CCNB1 (P14635 whole entry partner): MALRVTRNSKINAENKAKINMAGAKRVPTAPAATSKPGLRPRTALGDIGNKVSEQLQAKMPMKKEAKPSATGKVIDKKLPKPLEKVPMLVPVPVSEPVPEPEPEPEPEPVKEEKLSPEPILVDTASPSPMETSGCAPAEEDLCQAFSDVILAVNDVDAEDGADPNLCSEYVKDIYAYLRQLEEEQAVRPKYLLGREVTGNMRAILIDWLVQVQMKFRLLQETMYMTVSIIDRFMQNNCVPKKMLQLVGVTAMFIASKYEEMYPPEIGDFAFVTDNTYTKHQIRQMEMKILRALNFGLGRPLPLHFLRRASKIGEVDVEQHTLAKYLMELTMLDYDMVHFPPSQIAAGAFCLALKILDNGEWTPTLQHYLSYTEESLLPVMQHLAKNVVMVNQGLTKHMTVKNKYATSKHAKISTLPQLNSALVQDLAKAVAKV

Regarding `CS(=O)(=O)c1ccc(Nc2cc3c(C#Cc4nccc5[nH]ccc45)nccc3cn2)cc1` [Ex 516, 5-((1H-pyrrolo[3,2-c]pyridin-4-yl)ethynyl)-N-(4-(methylsulfonyl)phenyl)-2,6-naphthyridin-3-amine], the IC50 in assay [1] (setting [5]), in assay [2], in assay [3] and in assay [4] was > 250 nM in each case.
`CS(=O)(=O)c1ccc(Nc2cc3c(C#Cc4ccc(C5CC5)nc4)nccc3cn2)cc1` [Ex 517, 5-((6-cyclopropylpyridin-3-yl)ethynyl)-N-(4-(methylsulfonyl)phenyl)-2,6-naphthyridin-3-amine]: the IC50 in assay [1] (setting [6]) is 25 to 250 nM; in assay [2], > 250 nM; in assay [3] it was > 250 nM; in assay [4], > 250 nM.
Turning to `CS(=O)(=O)c1ccc(Nc2cc3c(C#Cc4ccc5oc(=O)[nH]c5c4)nccc3cn2)cc1` [Ex 518, 5-((7-((4-(methylsulfonyl)phenyl)amino)-2,6-naphthyridin-1-yl)ethynyl)benzo[d]oxazol-2(3H)-one], the IC50 in assay [1] (x = IC50 <25 nM, read-out: CDK2/CCNE IC50 (<25 nM)) is < 25 nM; in assay [2], > 250 nM; in assay [3] it was > 250 nM; in assay [4], > 250 nM.
Consider `CS(=O)(=O)c1ccc(Nc2cc3c(C#Cc4c[nH]c5nc(Cl)ncc45)nccc3cn2)cc1` [Ex 520, 5-((2-chloro-7H-pyrrolo[2,3-d]pyrimidin-5-yl)ethynyl)-N-(4-(methylsulfonyl)phenyl)-2,6-naphthyridin-3-amine], for which the IC50 in assay [1] (setting [6]) was 25 to 250 nM; in assay [2], > 250 nM; in assay [3], > 250 nM; in assay [4], > 250 nM.
On to `COC(=O)c1ccc(C#Cc2nccc3cnc(Nc4ccc(S(C)(=O)=O)cc4)cc23)cn1` [Ex 521, methyl 5-((7-((4-(methylsulfonyl)phenyl)amino)-2,6-naphthyridin-1-yl)ethynyl)picolinate], for which the IC50 in assay [1] (setting [6]) is 25 to 250 nM; in assay [2], > 250 nM; in assay [3] it was > 250 nM; in assay [4], > 250 nM.
With `CS(=O)(=O)c1ccc(Nc2cc3c(C#Cc4c[nH]c5ncccc45)nccc3cn2)cc1` [Ex 522, 5-((1H-pyrrolo[2,3-b]pyridin-3-yl)ethynyl)-N-(4-(methylsulfonyl)phenyl)-2,6-naphthyridin-3-amine], the IC50 in assay [1] (setting [6]) is 25 to 250 nM; in assay [2], > 250 nM; in assay [3], > 250 nM; in assay [4], > 250 nM.
In the case of `CS(=O)(=O)c1ccc(Nc2cc3c(C#Cc4cnc(C#N)nc4)nccc3cn2)cc1` [Ex 523, 5-((7-((4-(methylsulfonyl)phenyl)amino)-2,6-naphthyridin-1-yl)ethynyl)pyrimidine-2-carbonitrile], the IC50 in assay [1] (setting [5]), in assay [2], in assay [3] and in assay [4] was > 250 nM each time.
Consider `COc1ccnc(C#Cc2nccc3cnc(Nc4ccc(S(C)(=O)=O)cc4)cc23)c1N` [Ex 525, 5-((3-amino-4-methoxypyridin-2-yl)ethynyl)-N-(4-(methylsulfonyl)phenyl)-2,6-naphthyridin-3-amine], for which the IC50 in assay [1] (setting [6]) is 25 to 250 nM; in assay [2], > 250 nM; in assay [3] it was > 250 nM; in assay [4], > 250 nM.
Turning to `COc1ccc(C#Cc2nccc3cnc(Nc4ccc(S(C)(=O)=O)cc4)cc23)c(C)c1` [Ex 527, 5-((4-methoxy-2-methylphenyl)ethynyl)-N-(4-(methylsulfonyl)phenyl)-2,6-naphthyridin-3-amine], the IC50 in assay [1] (setting [6]) is 25 to 250 nM; in assay [2], > 250 nM; in assay [3], > 250 nM; in assay [4] it was > 250 nM.
On to `CS(=O)(=O)c1ccc(Nc2cc3c(C#Cc4ccc(=O)n(C(F)F)c4)nccc3cn2)cc1` [Ex 528, 1-(difluoromethyl)-5-((7-((4-(methylsulfonyl)phenyl)amino)-2,6-naphthyridin-1-yl)ethynyl)pyridin-2(1H)-one], for which the IC50 in assay [1] (setting [6]) is 25 to 250 nM; in assay [2], > 250 nM; in assay [3], > 250 nM; in assay [4] it was > 250 nM.
Consider `CS(=O)(=O)c1ccc(Nc2cc3c(C#Cc4ccnc(C(F)F)c4)nccc3cn2)cc1` [Ex 529, 5-((2-(difluoromethyl)pyridin-4-yl)ethynyl)-N-(4-(methylsulfonyl)phenyl)-2,6-naphthyridin-3-amine], for which the IC50 in assay [1] (setting [6]) is 25 to 250 nM; in assay [2], > 250 nM; in assay [3] it was > 250 nM; in assay [4], > 250 nM.
For the compound `CS(=O)(=O)c1ccc(Nc2cc3c(C#Cc4ccc(Cl)c(F)c4N)nccc3cn2)cc1` [Ex 530, 5-((2-amino-4-chloro-3-fluorophenyl)ethynyl)-N-(4-(methylsulfonyl)phenyl)-2,6-naphthyridin-3-amine], the IC50 in assay [1] (setting [6]) is 25 to 250 nM; in assay [2], > 250 nM; in assay [3] it was > 250 nM; in assay [4] it was > 250 nM.
With `CS(=O)(=O)c1ccc(Nc2cc3c(C#Cc4n[nH]c5c4CCC5)nccc3cn2)cc1` [Ex 531, N-(4-(methylsulfonyl)phenyl)-5-((1,4,5,6-tetrahydrocyclopenta[c]pyrazol-3-yl)ethynyl)-2,6-naphthyridin-3-amine], the IC50 in assay [1] (setting [6]) was 25 to 250 nM; in assay [2] it was > 250 nM; in assay [3], > 250 nM; in assay [4], > 250 nM.
`CS(=O)(=O)c1ccc(Nc2cc3c(C#Cc4ccc5c(C#N)c[nH]c5c4)nccc3cn2)cc1` [Ex 532, 6-((7-((4-(methylsulfonyl)phenyl)amino)-2,6-naphthyridin-1-yl)ethynyl)-1H-indole-3-carbonitrile]: the IC50 in assay [1] (setting [6]) is 25 to 250 nM; in assay [2], > 250 nM; in assay [3], > 250 nM; in assay [4], > 250 nM.
As for `CS(=O)(=O)c1ccc(Nc2cc3c(C#Cc4cc(CO)cnc4N)nccc3cn2)cc1` [Ex 533, (6-amino-5-((7-((4-(methylsulfonyl)phenyl)amino)-2,6-naphthyridin-1-yl)ethynyl)pyridin-3-yl)methanol], the IC50 in assay [1] (setting [6]) is 25 to 250 nM; in assay [2], > 250 nM; in assay [3] it was > 250 nM; in assay [4], > 250 nM.
`CS(=O)(=O)c1ccc(Nc2cc3c(C#Cc4cnc(N)c(OC(F)F)c4)nccc3cn2)cc1` [Ex 534, 5-((6-amino-5-(difluoromethoxy)pyridin-3-yl)ethynyl)-N-(4-(methylsulfonyl)phenyl)-2,6-naphthyridin-3-amine]: the IC50 is 25 to 250 nM in assay [1] (setting [6]), > 250 nM in assay [2], > 250 nM in assay [3] and > 250 nM in assay [4].
For the compound `CS(=O)(=O)c1ccc(Nc2cc3c(C#Cc4cccc5ncnn45)nccc3cn2)cc1` [Ex 535, 5-([1,2,4]triazolo[1,5-a]pyridin-5-ylethynyl)-N-(4-(methylsulfonyl)phenyl)-2,6-naphthyridin-3-amine], the IC50 in assay [1] (setting [6]) is 25 to 250 nM; in assay [2] it was > 250 nM; in assay [3] it was > 250 nM; in assay [4] it was > 250 nM.
As to `CS(=O)(=O)c1ccc(Nc2cc3c(C#Cc4cnc(C#N)c(N)c4)nccc3cn2)cc1` [Ex 536, 3-amino-5-((7-((4-(methylsulfonyl)phenyl)amino)-2,6-naphthyridin-1-yl)ethynyl)picolinonitrile], the IC50 was 25 to 250 nM in assay [1] (setting [6]), > 250 nM in assay [2], > 250 nM in assay [3] and > 250 nM in assay [4].

Source of the values: patent US20260325533A1, “CDK INHIBITOR COMPOUNDS” (ALEKSIA THERAPEUTICS, INC., priority 2023, published 2026).
